Patent US20010027213A1, “Use of pyrethroid compounds to promote hair growth” (priority 1998, published 2001)

Experiments:
Format in all cases: in vivo
[1] = tested on: mice (C3H strain); assay: Ear thickness (primary skin irritancy) after topical application, Example 1
Experimental: The following example was performed to determine if pyrethroid compounds cause skin irritation (as indicated by ear thickness in mice). Skin irritants may contribute to promoting hair growth.
Prior to the experiment, ear thickness of mice (C3H strain, female, 16 weeks of age, n=3/group) was measured with a thickness gage (Mitsutoyo Corp.). After measuring ear thickness of both ears, 10 μL of ethanol was applied on left ear and 10 μL of a pyrethroid solution (1% pyrethroid compound in ethanol) was applied to the right ear. Ear thickness was measured for three consecutive days after administration.

[2] = tested on: mice (Sencar strain); assay: Ear thickness after TPA plus pyrethroid application, Example 2
Experimental: Another ear thickness experiment was performed. Ear thickness of mice (Sencar strain, female, 10 weeks of age, n =3/group) was measured with a thickness gage (Mitsutoyo Corp.). After measuring the thickness of both ears at the beginning of the experiment, 20 μL of 12-O-tetradecanoyl-phorbol 13-acetate (TPA) at a concentration of 10^−4 M in acetone was applied on both ears, followed by the application of 10 μL of ethanol on the left ears and 10 μL of the four compositions tested in Example 1 on the right ears (at a concentration of 1% of pyrethroid compound in ethanol solution). Again, ear thickness was monitored over three consecutive days following administration of the compositions.

[3] = tested on: mice of the C3H strain; assay: Skin irritancy on clipped back skin, visual score, Example 3; conditions: three repeated topical administration, 1% in ethanol
Experimental: This experiment was conducted to test the skin irritancy of the compositions of this invention on hair-growing areas of test subjects, i.e., female mice (10 weeks old) of the C3H strain (n=5 group). After clipping the hair of the back skin of mice with an electric clipper, 5 μL/cm^2 of each four composition tested in Examples 1 and 2 (at a concentration of 1% in an ethanol solution) were applied. The application was administered once a day, for 3 consecutive days. Skin irritation was evaluated by unaided visual inspection at the end of the third day.

[4] = tested on: C3H strain mice; assay: Hair growth on clipped back skin, topical daily application, Example 4; design: Level of hair growth (unaided visual inspection): scale not given here; conditions: 1%, 5 μL/cm^2 daily, n=5/group
Experimental: The ability of topical administration of pyrethroid compounds to promote hair growth was assessed in female C3H strain mice (10 weeks old; n=5/group). Hair on the back skin of the mice was clipped carefully with an electric clipper. 5 μL/cm^2 of the five compositions tested in the examples above were applied to the mice daily. The level of hair growth at the applied skin areas were evaluated by unaided visual inspection at the indicated time.

[5] = tested on: C3H strain mice; assay: Hair growth on clipped back skin, repeat with minoxidil control, Example 5; design: Level of hair growth (unaided visual inspection): scale not given here
Experimental: The ability of topical administration of pyrethroid compounds to promote hair growth was assessed in female C3H strain mice (10 weeks old; n=5/group). Hair on the back skin of the mice was clipped carefully with an electric clipper. 5 μL/cm^2 of the five compositions tested in the examples above were applied to the mice daily. The level of hair growth at the applied skin areas were evaluated by unaided visual inspection at the indicated time. Cyclosporin A was used as a control.
The experiment described in Example 4 was repeated with a commercially available hair growth-promoting compound (5% minoxidil) as a control.

**Q.** `CC1(C)C(C=C(Cl)Cl)C1C(=O)OCc1cccc(Oc2ccccc2)c1` (stereo not drawn) [Permethrin, permethrin] was tested. Which “Ear thickness compared to ethanol” value ([1]; 1% in ethanol, C3H mice) did it give?
**A.** The value was “did not increase ear thickness”.

**Q.** What about the Right ear thickness ([1]; day 0 (before application), C3H female mice, n=3) of the same compound?
**A.** Its Right ear thickness is 27.3 ×0.01 mm.

**Q.** And the Right ear thickness ([1]; day 1, 10 μL of 1% in ethanol on right ear, C3H mice)?
**A.** The Right ear thickness was 27.7 ×0.01 mm.

**Q.** And the Right ear thickness ([1]; day 2, 10 μL of 1% in ethanol on right ear, C3H mice)?
**A.** Its Right ear thickness is 27.7 ×0.01 mm.

**Q.** And the Right ear thickness ([1]; day 3, 10 μL of 1% in ethanol on right ear, C3H mice)?
**A.** Its Right ear thickness is 28.3 ×0.01 mm.

**Q.** And the Right ear thickness ([2]; day 0 (before application), Sencar female mice, n=3)?
**A.** Its Right ear thickness is 23.3 ×0.01 mm.

**Q.** And the Right ear thickness ([2]; day 1, 20 μL TPA 10^−4 M in acetone then 10 μL of 1% in ethanol, Sencar mice)?
**A.** Its Right ear thickness is 27.3 ×0.01 mm.

**Q.** What about the Right ear thickness ([2]; day 2, 20 μL TPA 10^−4 M in acetone then 10 μL of 1% in ethanol, Sencar mice) of the same compound?
**A.** Its Right ear thickness is 27.0 ×0.01 mm.

**Q.** And the Right ear thickness ([2]; day 3, 20 μL TPA 10^−4 M in acetone then 10 μL of 1% in ethanol, Sencar mice)?
**A.** Its Right ear thickness is 27.7 ×0.01 mm.

**Q.** And the “Skin irritation (redness)” value [3]?
**A.** Its value is “failed to cause skin irritation”.

**Q.** What about the “Level of hair growth (unaided visual inspection)” value (“Level of hair growth” for short) ([4]; Day 7) of the same compound?
**A.** The value was 0.

**Q.** And the “Level of hair growth” value ([4]; Day 14)?
**A.** Its value is 0.

**Q.** What about the “Level of hair growth” value ([4]; Day 19) of the same compound?
**A.** The value was 0.

**Q.** What about the “Level of hair growth” value ([4]; Day 29) of the same compound?
**A.** The value was 0.

**Q.** What about the “Level of hair growth” value ([4]; Day 36) of the same compound?
**A.** The value was 0.

**Q.** And the “Level of hair growth” value ([5]; 0.01%, Week 1)?
**A.** The value was 0.

**Q.** What about the “Level of hair growth” value ([5]; 0.01%, Week 2) of the same compound?
**A.** Its value is 0.

**Q.** And the “Level of hair growth” value ([5]; 0.01%, Week 3)?
**A.** Its value is 0.

**Q.** What about the “Level of hair growth” value ([5]; 0.01%, Week 4) of the same compound?
**A.** Its value is 0.

**Q.** What about the “Level of hair growth” value ([5]; 0.01%, Week 5) of the same compound?
**A.** The value was 0.

**Q.** What about the “Level of hair growth” value ([5]; 0.01%, Week 6) of the same compound?
**A.** The value was 0.

**Q.** What about the “Level of hair growth” value ([5]; 0.1%, Week 1) of the same compound?
**A.** Its value is 0.

**Q.** What about the “Level of hair growth” value ([5]; 0.1%, Week 2) of the same compound?
**A.** The value was 0.

**Q.** What about the “Level of hair growth” value ([5]; 0.1%, Week 3) of the same compound?
**A.** The value was 0.

**Q.** What about the “Level of hair growth” value ([5]; 0.1%, Week 4) of the same compound?
**A.** Its value is 0.

**Q.** And the “Level of hair growth” value ([5]; 0.1%, Week 5)?
**A.** The value was 0.

**Q.** And the “Level of hair growth” value ([5]; 0.1%, Week 6)?
**A.** Its value is 0.

**Q.** What about the “Level of hair growth” value ([5]; 1%, Week 1) of the same compound?
**A.** Its value is 0.

**Q.** And the “Level of hair growth” value ([5]; 1%, Week 2)?
**A.** Its value is 0.

**Q.** And the “Level of hair growth” value ([5]; 1%, Week 3)?
**A.** The value was 0.

**Q.** What about the “Level of hair growth” value ([5]; 1%, Week 4) of the same compound?
**A.** The value was 0.

**Q.** And the “Level of hair growth” value ([5]; 1%, Week 5)?
**A.** Its value is 0.

**Q.** What about the “Level of hair growth” value ([5]; 1%, Week 6) of the same compound?
**A.** The value was 1.
